From patent US5378706A, “Fused-thiazole derivatives active on the cholinergic system, and pharmaceutical compositions containing same” (Sanofi, priority 1987, dated 1995)
Where two headings read alike, the source gives them in different places.

Key:
[1] = target: T1, M2 -type muscarinic cholinergic receptor (Cavia porcellus, UniProt H0VRN8); test: Affinity for the M2-type muscarinic cholinergic receptor, displacement of tritiated N-methylscopolamine (3H-NMS) on smooth guinea-pig ileum muscle homogenate; type: binding
T1 construct: on a smooth guinea-pig ileum muscle homogenate; from tissue; host or cells: guinea-pig ileum smooth muscle homogenate
T1 sequence (H0VRN8 1-466): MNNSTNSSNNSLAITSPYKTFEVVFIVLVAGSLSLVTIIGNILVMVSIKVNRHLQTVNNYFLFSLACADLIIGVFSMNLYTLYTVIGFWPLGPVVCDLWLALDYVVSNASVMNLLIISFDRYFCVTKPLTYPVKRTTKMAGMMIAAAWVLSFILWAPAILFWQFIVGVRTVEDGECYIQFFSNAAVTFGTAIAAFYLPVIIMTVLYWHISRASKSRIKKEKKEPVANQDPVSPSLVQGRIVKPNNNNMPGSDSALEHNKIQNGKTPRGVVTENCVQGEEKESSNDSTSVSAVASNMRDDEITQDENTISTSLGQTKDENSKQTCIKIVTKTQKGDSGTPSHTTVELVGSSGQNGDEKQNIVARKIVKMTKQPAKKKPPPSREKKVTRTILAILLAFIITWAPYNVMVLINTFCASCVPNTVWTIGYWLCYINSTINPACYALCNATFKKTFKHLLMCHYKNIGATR
Experimental: The M1 -type receptors are concentrated in certain regions of the brain, such as the hippocampus, the cerebral cortex and the striatum, and also in the sympathetic ganglia. These binding sites can be selectively labeled with tritiated pirenzepine (^3 H-PZ). The M2 -type receptors predominate in the heart and the ileum and can be labeled with tritiated N-methyl-scopolamine (^3 H-NMS). The selectivity of the products of the invention with respect to the M1 and M2 sites was determined by studying their in vitro interaction with ^3 H-PZ and ^3 H-NMS firmly bound with a high affinity to rat hippocampus membranes and smooth guinea-pig ileum muscle, respectively.
The interaction with the M2 -type muscarinic receptors was studied by in vitro measurement, on a smooth guinea-pig ileum muscle homogenate, of the displacement of tritiated N-methylscopolamine from its specific binding sites. […] The final volume is 1 ml. The reaction is stopped by centrifugation for 5 minutes at 15,000×g. The non-specific binding is determined in the presence of 10 mM atropine sulfate.
The IC50 for ^3 H-PZ displacement represents the affinity for the M1 receptor; the IC50 for ^3 H-NMS displacement represents the affinity for the M2 receptor.

[2] = tested on: M1 central muscarinic cholinergic receptors; test: Antagonism of rotations induced by intrastriatal injection of pirenzepine in mice; type: in vivo, mice (Swiss, CD 1); settings: for Pirenzepine antagonism ED50 i.p.: 15 minutes before intrastriatal pirenzepine 1 μg; for Pirenzepine antagonism ED50 p.o.: 30 minutes before intrastriatal pirenzepine 1 μg
Experimental: Pirenzepine (PZ) is a specific antagonist of the M1 central muscarinic cholinergic receptors. The intrastriatal injection of PZ into mice induces rotatory behavoir. The antagonism of this behavoir by the products according to the invention was studied.
The products according to the invention are administered either intraperitoneally (i.p.) or orally (p.o.) after solubilization in distilled water or suspension in a 5% solution of gum arabic. The control animals receive the pure solvent under the same conditions.
The animals used are female mice (Swiss, CD 1, Charles River, France) with a body weight of between 25 and 30 grams.
The pirenzepine is dissolved in a phosphate buffer and the pH of the solution is 6.
The test products or their solvents are administered in a volume of 0.4 ml per 20 g of body weight, either by i.p. injection or orally via an esophageal tube.
The number of contralateral rotations (rotations in the opposite direction to the side injected) was counted for three 2-minute periods after injection of the pirenzepine: 2nd to 4th, 8th to 10th and 13th to 15th minutes. Each treatment consists of 3 to 4 doses and 10 animals per dose. The total number of rotations and the percentage antagonism with respect to the control group are calculated for each treatment.

[3] = target: T2, M1 -type muscarinic cholinergic receptor (Rattus norvegicus, UniProt P08482); test: biochemical; type: binding; settings: for ratio R of the IC50 values for the M1 and M2 receptors: selectivity, values correspond to IC50 M2 / IC50 M1
T2 sequence (P08482 1-460): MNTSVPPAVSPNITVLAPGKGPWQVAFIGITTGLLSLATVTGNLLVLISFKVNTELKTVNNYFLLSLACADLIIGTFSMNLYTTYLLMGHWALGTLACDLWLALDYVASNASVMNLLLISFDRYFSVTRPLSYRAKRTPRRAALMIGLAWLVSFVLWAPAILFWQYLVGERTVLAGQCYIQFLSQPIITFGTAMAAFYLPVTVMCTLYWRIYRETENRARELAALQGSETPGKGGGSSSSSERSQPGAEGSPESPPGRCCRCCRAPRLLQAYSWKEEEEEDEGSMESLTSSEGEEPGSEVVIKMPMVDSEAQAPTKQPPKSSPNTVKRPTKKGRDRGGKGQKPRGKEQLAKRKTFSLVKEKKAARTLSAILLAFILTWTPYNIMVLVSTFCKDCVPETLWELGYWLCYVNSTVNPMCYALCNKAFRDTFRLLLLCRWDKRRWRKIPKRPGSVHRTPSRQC
Experimental: The interaction of the molecules with the M1 -type muscarinic receptors was studied by in vitro measurement, on a rat hippocampus homogenate, of the displacement of tritiated pirenzepine from its specific binding sites. Aliquots (10 μl) of a 5% (w/v) rat hippocampus homogenate in an Na2 HPO4 buffer (50 mM, pH 7.40) are incubated for 2 hours at 4° C. in the presence of ^3 H-PZ (76 Ci/mmol; final concentration 1 nM) and increasing concentrations of the test product. The final volume is 2 ml. The reaction is stopped by centrifugation for 10 minutes at 50,000×g. After decantation and washing of the residues, the bound radioactivity is counted by liquid scintillation. The non-specific binding is determined in the presence of 10 μM atropine sulfate.

[4] = guinea-pig ileum smooth muscle homogenate, 3H-NMS 0.3 nM, 20 minutes at 30° C., pH 7.5, read-out: IC50 3H-NMS (M2)
[5] = rat hippocampus homogenate, 3H-PZ 1 nM, 2 hours at 4° C., pH 7.40, read-out: IC50 3H-PZ (M1)

With `COC(=O)C1=CCCN(C)C1` [Arecoline, reference compound] the IC50 [1] was 4.5 µM, the “Pirenzepine antagonism ED50 i.p.” value [2] was 1 mg/kg and the “Pirenzepine antagonism ED50 p.o.” value [2] was 0.5 mg/kg.
`O=C1CCCN1CC#CCN1CCCC1` [Oxotremorine, reference compound] was tested, and the IC50 [1] was 0.2 µM, the “Pirenzepine antagonism ED50 i.p.” value [2] was 0.005 mg/kg and the IC50 [3] was 0.24 µM. The “ratio R of the IC50 values for the M1 and M2 receptors” value (shortened to “ratio R of the IC50 values”) [3] was 1.
With `c1ccc(-c2cnc(NCCN3CCOCC3)s2)cc1` [SR 44285 A] the “Pirenzepine antagonism ED50 i.p.” value [2] was 3 mg/kg.
In the case of `CCN(CC)CCNc1ncc(-c2ccccc2)s1.Cl.Cl` [SR 44318 A, 2-[(2-Diethylaminoethyl)amino]-5-phenylthiazole dihydrochloride], the IC50 [1, 4] is reported as 38 µM, the “Pirenzepine antagonism ED50 i.p.” value [2] is reported as 1.5 mg/kg and the “Pirenzepine antagonism ED50 p.o.” value [2] is reported as 3 mg/kg. For the same compound, the IC50 ([3]; read-out: IC50 3H-PZ (M1)) was 3.4 µM and the “ratio R of the IC50 values” value [3] was 11.
For `CCN(CC)CCNc1nc2c(s1)CCCc1ccccc1-2` [SR 44323 A], the IC50 [1, 4] was 8.5 µM, the “Pirenzepine antagonism ED50 i.p.” value [2] was 10 mg/kg and the IC50 [3, 5] was 1.7 µM. For the same compound, the “ratio R of the IC50 values” value [3] was 5.
`CCN(CC)CCCNc1nc2c(s1)CCCc1ccccc1-2` [SR 44326 A] was tested, and the IC50 [1, 4] was > 100 µM, the “Pirenzepine antagonism ED50 i.p.” value [2] was 3 mg/kg and the IC50 [3, 5] was 2.2 µM. The “ratio R of the IC50 values” value [3] was > 45.
With `CN(C)CCCNc1nc2c(s1)CCCc1ccccc1-2` [SR 44327 A] the IC50 [1, 4] was 38 µM, the “Pirenzepine antagonism ED50 i.p.” value [2] was 10 mg/kg and the IC50 [3, 5] was 1.9 µM. The “ratio R of the IC50 values” value [3] was 20.
`CCN(CC)CCCNc1ncc(-c2ccccc2)s1` [SR 44346 A] was tested, and the IC50 [1, 4] was 25 µM, the “Pirenzepine antagonism ED50 i.p.” value [2] was 1 mg/kg and the IC50 [3, 5] was 2 µM. For the same compound, the “ratio R of the IC50 values” value [3] was 12.5.
With `c1ccc2c(c1)CCCc1sc(NCCCN3CCOCC3)nc1-2` [SR 44392 A] the “Pirenzepine antagonism ED50 i.p.” value [2] was 3 mg/kg.
`CCN(CC)CCNc1nc2c(s1)CCc1ccccc1-2` [SR 44393 A] was tested, and the IC50 [1, 4] was 42 µM, the “Pirenzepine antagonism ED50 i.p.” value [2] was 3 mg/kg and the IC50 [3, 5] was 2.7 µM. The “ratio R of the IC50 values” value [3] was 15.
In the case of `CCN(CC)CCNc1nc2c(s1)CCCc1ccc([N+](=O)[O-])cc1-2.Cl.Cl` [SR 44411 A, 2-[(2-Diethylaminoethyl)amino]-9-nitro-5,6-dihydro-4H-benzo[6,7]cyclohepta[1,2-d]thi azole dihydrochloride], the IC50 [1, 4] is reported as 6.7 µM, the “Pirenzepine antagonism ED50 i.p.” value [2] is reported as 15 mg/kg and the IC50 ([3]; read-out: IC50 3H-PZ (M1)) is reported as 0.9 µM. For the same compound, the “ratio R of the IC50 values” value [3] was 7.
With `Cc1cc(C)c(-c2csc(NCCCN(C)C)n2)c(C)c1` [SR 44421 A] the IC50 [1, 4] was > 100 µM, the “Pirenzepine antagonism ED50 p.o.” value [2] was 0.2 mg/kg and the IC50 [3, 5] was 3.6 µM. For the same compound, the “ratio R of the IC50 values” value [3] was > 27.
With `CCN(CC)CCCNc1nc(-c2ccccc2)c(-c2ccccc2)s1` [SR 44435 A] the IC50 [1, 4] was 3 µM, the “Pirenzepine antagonism ED50 i.p.” value [2] was 2 mg/kg and the IC50 [3, 5] was 0.36 µM. The “ratio R of the IC50 values” value [3] was 8.
In the case of `Cc1nc(NCCCN(C)C)sc1-c1ccccc1` [SR 44467 A], the IC50 [1, 4] is reported as 38 µM, the “Pirenzepine antagonism ED50 p.o.” value [2] is reported as 3 mg/kg and the IC50 [3, 5] is reported as 1.5 µM. The “ratio R of the IC50 values” value [3] was 25.
In the case of `CN(C)CCCNc1nc(-c2ccc(Cl)cc2)cs1` [SR 44493 A], the IC50 [1, 4] is reported as 45 µM, the “Pirenzepine antagonism ED50 p.o.” value [2] is reported as 0.3 mg/kg and the IC50 [3, 5] is reported as 1.6 µM. For the same compound, the “ratio R of the IC50 values” value [3] was 28.
`CN(C)CCCNc1nc(-c2ccc(F)cc2)cs1` [SR 44494 A] was tested, and the IC50 [1, 4] was 80 µM, the “Pirenzepine antagonism ED50 p.o.” value [2] was 2 mg/kg and the IC50 [3, 5] was 0.8 µM. The “ratio R of the IC50 values” value [3] was 100.
`Cc1sc(NCCCN)nc1-c1ccccc1.Cl.Cl` [SR 44514 A, 2-[(3-Aminopropyl)amino]-5-methyl-4-phenylthiazole dihydrochloride] was tested, and the IC50 [1, 4] was > 100 µM, the “Pirenzepine antagonism ED50 i.p.” value [2] was 3 mg/kg and the IC50 ([3]; read-out: IC50 3H-PZ (M1)) was 0.5 µM. The “ratio R of the IC50 values” value [3] was > 200.
For `CCN(CC)CCCNc1nc(-c2ccc3ccccc3c2)cs1` [SR 44573 A], the IC50 [1, 4] was 13 µM, the “Pirenzepine antagonism ED50 p.o.” value [2] was 2.50 mg/kg and the IC50 [3, 5] was 1.8 µM. For the same compound, the “ratio R of the IC50 values” value [3] was 7.
For `CN(C)CCCNc1nc(-c2ccc(Cl)cc2Cl)cs1` [SR 44749 A], the IC50 [1, 4] was 26 µM, the “Pirenzepine antagonism ED50 p.o.” value [2] was 3 mg/kg and the IC50 [3, 5] was 1.8 µM. The “ratio R of the IC50 values” value [3] was 14.
For `CN(C)CCCNc1nc(-c2ccc(F)cc2F)cs1` [SR 44770 A], the IC50 [1, 4] was 26 µM, the “Pirenzepine antagonism ED50 p.o.” value [2] was 3 mg/kg and the IC50 [3, 5] was 0.6 µM. The “ratio R of the IC50 values” value [3] was 43.
In the case of `Cc1cc(C)c(-c2csc(NCCC3CCCN3C)n2)c(C)c1` (stereo not shown) [SR 44814 A], the “Pirenzepine antagonism ED50 p.o.” value [2] is reported as 0.2 mg/kg, the IC50 [3, 5] is reported as 1.4 µM and the “ratio R of the IC50 values” value [3] is reported as 7.
With `Cc1cc(C)c(-c2csc(NCc3cccnc3)n2)c(C)c1` [SR 44839 A] the IC50 [1, 4] was 100 µM, the “Pirenzepine antagonism ED50 p.o.” value [2] was 0.2 mg/kg and the IC50 [3, 5] was 0.4 µM. For the same compound, the “ratio R of the IC50 values” value [3] was 250.
For `Cc1cc(C)c(-c2csc(NCCc3ccncc3)n2)c(C)c1` [SR 44856 A], the IC50 [1, 4] was > 100 µM, the “Pirenzepine antagonism ED50 p.o.” value [2] was 3 mg/kg and the IC50 [3, 5] was 0.3 µM. For the same compound, the “ratio R of the IC50 values” value [3] was > 300.
In the case of `CN1CCN(CCCNc2nc(-c3ccc(F)cc3)cs2)CC1` [SR 44862 A], the IC50 [1, 4] is reported as 34 µM, the “Pirenzepine antagonism ED50 p.o.” value [2] is reported as 3 mg/kg and the IC50 [3, 5] is reported as 3 µM. For the same compound, the “ratio R of the IC50 values” value [3] was 11.
For `Cc1cc(C)c(-c2csc(NCCCN(C(C)C)C(C)C)n2)c(C)c1` [SR 44887 A], the “Pirenzepine antagonism ED50 p.o.” value [2] was 0.3 mg/kg.
With `Cc1cc(C)c(-c2csc(NCCCN)n2)c(C)c1` [SR 44949 A, 2-[(3-Aminopropyl)amino]-4-(2,4,6-trimethylphenyl)thiazole] the “Pirenzepine antagonism ED50 p.o.” value [2] was 10 mg/kg.
